Experimental findings from ChEMBL document CHEMBL4806964, “Heterocyclic compound” (2019) are described below.

In experiment [1] the target is T1, CDK12/Cyclin K (Homo sapiens) (UniProt O75909+Q9NYV4). In words: Inhibition of BODIPY-FL-labeled AT-7519 binding to human His-tagged CDK12/CycK assessed as BODIPY-FL-labeled AT-7519 binding by measuring fluorescence intensity at 1 uM incubated for 120 mins in presence of 3 uM BODIPY-FL-labeled AT-7519 by TR-FRET assay relative to control. The experiment is classed as protein-complex assay. A general note: Time-resolved FRET reads energy transfer from a long-lived donor to a nearby acceptor.
T1 sequence (O75909 whole entry, looked up): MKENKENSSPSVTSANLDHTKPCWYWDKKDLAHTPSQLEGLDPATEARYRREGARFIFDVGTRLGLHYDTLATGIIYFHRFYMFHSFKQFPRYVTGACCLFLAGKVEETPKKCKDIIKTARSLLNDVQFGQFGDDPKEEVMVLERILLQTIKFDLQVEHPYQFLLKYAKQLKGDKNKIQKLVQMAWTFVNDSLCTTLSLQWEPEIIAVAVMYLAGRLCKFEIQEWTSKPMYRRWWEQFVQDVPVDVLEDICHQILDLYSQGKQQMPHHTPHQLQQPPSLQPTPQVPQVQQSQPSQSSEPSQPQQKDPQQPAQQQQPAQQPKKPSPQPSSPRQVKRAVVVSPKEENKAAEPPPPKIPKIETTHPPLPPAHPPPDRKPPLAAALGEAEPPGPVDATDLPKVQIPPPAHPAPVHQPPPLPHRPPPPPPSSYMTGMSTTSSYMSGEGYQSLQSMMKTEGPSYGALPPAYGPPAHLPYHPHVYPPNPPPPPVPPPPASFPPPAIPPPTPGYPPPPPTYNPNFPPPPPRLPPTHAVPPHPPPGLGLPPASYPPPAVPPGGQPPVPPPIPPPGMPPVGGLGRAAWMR
T1 sequence (Q9NYV4 whole entry, looked up): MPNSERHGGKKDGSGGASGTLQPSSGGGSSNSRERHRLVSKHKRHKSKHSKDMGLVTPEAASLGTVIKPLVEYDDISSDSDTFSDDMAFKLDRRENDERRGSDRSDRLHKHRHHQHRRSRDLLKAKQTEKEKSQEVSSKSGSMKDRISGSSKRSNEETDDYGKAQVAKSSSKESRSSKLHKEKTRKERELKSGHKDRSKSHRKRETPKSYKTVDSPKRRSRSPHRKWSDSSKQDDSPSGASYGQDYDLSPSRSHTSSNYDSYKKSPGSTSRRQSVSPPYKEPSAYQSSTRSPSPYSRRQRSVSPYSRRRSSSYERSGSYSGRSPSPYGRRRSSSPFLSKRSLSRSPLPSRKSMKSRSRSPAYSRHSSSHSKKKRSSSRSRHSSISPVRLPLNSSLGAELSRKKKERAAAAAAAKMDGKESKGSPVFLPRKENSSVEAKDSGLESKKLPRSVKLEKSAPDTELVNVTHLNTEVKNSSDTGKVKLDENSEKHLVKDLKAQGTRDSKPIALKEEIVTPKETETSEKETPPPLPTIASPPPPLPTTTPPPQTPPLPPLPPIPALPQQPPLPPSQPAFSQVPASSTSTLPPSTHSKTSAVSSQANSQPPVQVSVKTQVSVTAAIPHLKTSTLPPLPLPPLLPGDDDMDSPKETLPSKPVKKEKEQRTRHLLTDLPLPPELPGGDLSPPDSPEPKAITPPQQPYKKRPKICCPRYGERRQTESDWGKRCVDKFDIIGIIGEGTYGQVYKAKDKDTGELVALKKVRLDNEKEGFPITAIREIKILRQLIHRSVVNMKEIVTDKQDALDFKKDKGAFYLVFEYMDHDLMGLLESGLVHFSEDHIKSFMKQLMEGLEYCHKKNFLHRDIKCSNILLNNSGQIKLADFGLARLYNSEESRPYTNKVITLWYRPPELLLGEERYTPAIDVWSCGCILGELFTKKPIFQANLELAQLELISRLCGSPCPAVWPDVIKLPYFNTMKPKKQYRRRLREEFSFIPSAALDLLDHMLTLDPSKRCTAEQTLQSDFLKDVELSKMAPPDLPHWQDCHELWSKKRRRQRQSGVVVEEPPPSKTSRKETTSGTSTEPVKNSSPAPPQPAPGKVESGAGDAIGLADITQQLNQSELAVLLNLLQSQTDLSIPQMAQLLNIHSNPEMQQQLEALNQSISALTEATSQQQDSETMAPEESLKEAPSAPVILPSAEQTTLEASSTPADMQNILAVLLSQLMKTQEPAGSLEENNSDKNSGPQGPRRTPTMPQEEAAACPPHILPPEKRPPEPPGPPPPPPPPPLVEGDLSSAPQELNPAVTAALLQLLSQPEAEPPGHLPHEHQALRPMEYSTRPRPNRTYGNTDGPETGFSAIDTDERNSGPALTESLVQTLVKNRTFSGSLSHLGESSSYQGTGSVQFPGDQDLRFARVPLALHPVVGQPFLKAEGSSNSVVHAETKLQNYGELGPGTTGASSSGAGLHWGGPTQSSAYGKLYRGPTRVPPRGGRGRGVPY

The target in experiment [2] is T1, CDK12/Cyclin K (Homo sapiens). In words: Inhibition of BODIPY-FL-labeled AT-7519 binding to human His-tagged CDK12/CycK assessed as BODIPY-FL-labeled AT-7519 binding by measuring fluorescence intensity at 1 uM incubated for 120 mins in presence of 30 uM BODIPY-FL-labeled AT-7519 by TR-FRET assay relative to control. The experiment is classed as protein-complex assay.

Experiment [3] shares this target. In words: Inhibition of human His-tagged CDK12/CycK using ULight-labeled eIF4E-binding protein 1 substrate at 1 uM incubated for 60 mins by fluorescence based assay relative to control. The experiment is classed as protein-complex assay.
A further experiment deals with A2780. Description: Antiproliferative activity against human A2780 cells at 1 uM by CellTiter-Glo reagent assay relative to control. The experiment is classed as functional. In general terms: Cellular ATP, detected with luciferase, serves as a proxy for viable cell number.
In experiment [4] the target is T1, CDK12/Cyclin K (Homo sapiens). Description: Inhibition of human CDK12/CycK in human A2780 cells assessed as intracellular phosphorylated CTD Ser2 art 1 uM by In-Cell Western method relative to control. The format is cell-based.

`COc1ncc(-c2ccc(N(C(=O)COc3ccccc3)[C@H]3CC[C@H](Nc4ncc(C#N)c(N5CCCC(O)CC5)n4)CC3)nc2)cn1` (some centres undefined): in experiment [1], the inhibition (as a rule, the drop in the measured response relative to a control, in per cent) came out at 104%.

Consider `COCCOC(=O)N(c1cnc(-c2cnc(OC)nc2)cn1)[C@H]1CC[C@H](Nc2ncc(C(F)(F)F)c(-c3cncc(S(N)(=O)=O)c3)n2)CC1`, for which the inhibition in experiment [2] was 91%.

As for `COc1ncc(-c2cnc(N(C(=O)COc3ccccc3)[C@H]3CC[C@H](Nc4ncc(C(F)(F)F)c(N5CC(C)(O)C5)n4)CC3)cn2)cn1`, the inhibition in experiment [1] was found to be 100%.

In the case of `COCC(=O)N(c1cnc(-c2cnn(C)c2)cn1)[C@H]1CC[C@H](Nc2ncc(C(F)(F)F)c(-c3cncc(S(N)(=O)=O)c3)n2)CC1`, the inhibition in experiment [2] is 95%.

`COc1ncc(-c2cnc(N(C(=O)NCc3ccccn3)[C@H]3CC[C@H](Nc4ncc(C(F)(F)F)c(OC5COC5)n4)CC3)nc2)cn1`: the inhibition is 103% in experiment [1] and 99% in experiment [3]. In addition, in the experiment on A2780, the inhibition at 1 µM came to 98%.

For `CCCC(=O)N(c1cnc(-c2cnn(C)c2)cn1)[C@H]1CC[C@H](Nc2ncc(C(F)(F)F)c(-c3cncc(S(N)(=O)=O)c3)n2)CC1`, the inhibition in experiment [2] was 99%.

Consider `COCCNC(=O)N(c1cnc(-c2cnc(OC)nc2)cn1)[C@H]1CC[C@H](Nc2ncc(C(F)(F)F)c(-c3ccn(C(F)F)n3)n2)CC1`, for which the inhibition in experiment [2] worked out at 90%.

On to `COc1ncc(-c2cnc(N(C(=O)NCc3ccccc3)[C@H]3CC[C@H](Nc4ncc(C(F)(F)F)c(NC5COC5)n4)CC3)nc2)cn1`, for which the inhibition in experiment [1] turned out to be 96%.

Turning to `COc1ncc(-c2cnc(N(C(=O)NCc3ccccc3)[C@H]3CC[C@H](Nc4ncc(C#N)c(N5CCCC(O)CC5)n4)CC3)nc2)cn1` (some centres undefined), in experiment [4], the inhibition is 48%.

For `COc1ncc(-c2ccc(N(C(=O)COc3ccccc3)[C@H]3CC[C@H](Nc4ncc(C#N)c(OC5COC5)n4)CC3)nc2)cn1`, the inhibition in experiment [1] is 98%.

Turning to `Cn1cc(-c2ccc(N(C(=O)NCc3ccccc3)[C@H]3CC[C@H](Nc4ncc(C#N)c(-c5[nH]ncc5O)n4)CC3)nc2)cn1`, the inhibition in experiment [1] was determined as 96%.

Consider `COc1ncc(-c2cnc(N(C(=O)OCCN3CCOCC3)[C@H]3CC[C@H](Nc4ncc(C(F)(F)F)c(-c5cncc(S(N)(=O)=O)c5)n4)CC3)cn2)cn1`, for which the inhibition in experiment [2] turned out to be 99%.

In the case of `COc1ncc(-c2cnc(N(C(=O)NCc3ccccc3)[C@H]3CC[C@H](Nc4ncc(C(F)(F)F)c(N5CC(C)(O)C5)n4)CC3)cn2)cn1`, in experiment [1], the inhibition was determined as 103%.

With `COc1ncc(-c2cnc(N(C(=O)NCc3ccccc3)[C@H]3CC[C@H](Nc4ncc(C#N)c(N5CC(C)(O)C5)n4)CC3)nc2)cn1`, the inhibition is 95% in experiment [1], 105% in experiment [3] and 54% in experiment [4]. Moreover, the inhibition at 1 µM in the experiment with A2780 was found to be 94%.
